# Counter-ions that a name gives are not always drawn. Like-named read-outs stand apart in the source and are kept apart here.
# Legend:
# [1] = Oven heating of calcium sulphate coins pre-loaded with sumatriptan succinate; detection by UV; type: physicochemical; conditions: 0.07 g sumatriptan succinate/g calcium sulphate, oven approximately 250° C.
# Method: (§1) The temperature was set to approximately 250° C.
# [2] = Oven heating of Al2O3 rods soaked in sumatriptan succinate solution; detection by UV; conditions: Al2O3 rods soaked in 20 mg/ml solution for 24 hours
# Method: The application of sumatriptan succinate was achieved by soaking the Al2O3 rods in a sumatriptan succinate solution with a concentration of 20 mg/ml. The volume of solution was around 100 μl but was not measured precisely; the volume was sufficient to fully immerse the rods. The samples were soaked for 24 hours in room temperature and thereafter the samples were dried for 24 hours, before heat treatment and/or analysis.
# The temperature was set to approximately 300° C. […] The rods were heated in the oven for a period of time ranging from 0 to 15 minutes.
# All sumatriptan release tests were carried out according to the same analytical method. The rods were immersed in a beaker containing 50 ml of deionised water. After 24 hours a sample of the water was taken out and filtered (pore size: 0.2 μm). The sample was characterized by UV-spectrophotometry at a wavelength of 282 nm. The amount sumatriptan succinate in the samples was then calculated. The reference samples represent the amount of sumatriptan succinate that was loaded before heat treatment. The difference between the amount of sumatriptan succinate detected in the heat-treated samples and the reference sample represents the amount of sumatriptan succinate that evaporated during the heat treatment.
# [3] = calcium sulphate rods soaked 24 hours in pure nicotine; heated 5*10 sec., maximum temperature 315° C.
# From the text: Aluminium oxide ceramic rods and calcium sulphate rods were obtained as described in Example 3. Nicotine and nicotine solutions were supplied and applied, and nicotine levels were detected as described in Example 3.
# Samples were heated using a prototype e-cigarette device (X-Cube II, Smoke) obtained from Devex Mekatronik AB (Sweden). The device is derived from the commercially available e-cigarette X-Cube.
# The sample in the device was heated up by a coil that is wrapped around the sample.
# The end of the device was connected to a vial via a silicon hose. The vial contained 1 ml of deionised water. To simulate smoking a rod was put into the device and puffing was performed. Puffing involves a sequence of 5 puffs that are each 10 seconds long. After puffing, the hose was removed and flushed with the water. The water was analysed for concentration of nicotine.
# [4] = calcium sulphate coins, nicotine solution 50 μl, 18 mg/ml dispensed; heated about 1 minute or about 5 minutes
# From the text: Calcium sulphate coins were obtained as described in Example 3. For the indirect induction test a magnet was molded into the coin. Nicotine and nicotine solutions were supplied and applied, and nicotine levels were detected as described in Example 3.
# Metal plate for induction cooker was obtained from Haneström (Sweden). Induction cooker Wilfa ICP-2000 was obtained from Media Markt (Sweden). Magnets (10*1 mm, Samarium Cobalt magnets, 0.4 kg pull) were obtained from first4magnets (UK). IR-thermometer (MS6520A) was obtained from Mastech (USA).
# Heat treatment by indirect induction was carried out by placing a metal plate onto the induction cooker. The ceramic coins containing a magnet was applied onto the metal plate and heated on maximum effect (exact temperature was not measured; see FIG. 10).
# [5] = Liquid/Powder ratio 0.4 (w/w)
# Method: (§2) Calcium sulphate alpha hemihydrate (CaS) was obtained from Bo Ehrlander AB (Sweden). Shaped silicon rubbers were used as molds for coins (diameter: 12 mm, thickness: 2 mm). The calcium sulphate was mixed with a nicotine solution with a concentration of 5 or 20 mg/ml of nicotine (Liquid/Powder ratio of 0.4 (w/w)) to form a homogenous paste, which was filled in the rubber molds. Once the paste was applied, the molds were set to dry for at least 12 h under ambient conditions.
# The temperature was set to approximately 200° C.
# The sample was characterized by UV-spectrophotometer at a wavelength of 219 nm. The amount nicotine in the samples were then calculated.
# [6] = for amount of nicotine detected in the reference sample / nicotine detected in coins after heating: pure nicotine (20 mg) dispensed; for amount of nicotine detected in the reference sample: not heated
# [7] = calcium sulphate coins, solution 50 μl, 5 mg/ml dispensed; oven approximately 250° C., 0 to 15 minutes
# Method: as §2, with “(Sweden). Clonidine hydrochloride was obtained from PCAS (Finland).” for “(Sweden).”, “deionised water” for “a nicotine solution with a concentration of 5 or 20 mg/ml of nicotine”, “used to fill” for “filled in”, “When” for “Once”
# Clonidine hydrochloride solution (50 μl, 5 mg/ml) was dispensed onto the calcium sulphate coins. When the solution was applied, the coins were set to dry for at least 12 h under ambient conditions.
# as §1
# (§3) Each coin was weighed and immersed into a beaker containing 200 ml of deionised water. […] The sample was characterized by Shimadzu LC-2030 (Germany) HPLC system with a Genesis C18 analytical column 4 μm (100×2.1 mm i.d.) with a mobile phase of acetonitrile/phosphoric acid, pH 3 (11/89). The wavelength was set to 220 nm.
# The reference samples represent the amount of clonidine hydrochloride that was loaded before heat treatment.
# [8] = From the text: Calcium sulphate alpha hemihydrate (CaS) was obtained from Bo Ehrlander AB (Sweden). Clonidine hydrochloride was obtained from PCAS (Finland). Shaped silicon rubbers were used as molds for coins (diameter: 12 mm, thickness: 2 mm). The calcium sulphate was mixed with powder of Clonidine hydrochloride (0.07 g Clonidine hydrochloride/g calcium sulphate) and deionised water (Liquid/Powder ratio of 0.4 (w/w)) to form a homogenous paste, which was used to fill the rubber molds. Once the paste had been applied, the molds were set to dry for at least 12 h under ambient conditions.
# The oven temperature was set to approximately 250° C.
# as §3
# The reference samples represent the amount of clonidine hydrochloride mg/g calcium sulphate that was loaded before heat treatment.
# [9] = calcium sulphate rods soaked in pure nicotine, oven approximately 200° C.
structure (smiles),measurement,setting,value
CNS(=O)(=O)Cc1ccc2[nH]cc(CCN(C)C)c2c1 [sumatriptan succinate],time within which almost all of the Sumatriptan succinate was released when heated,[1],≤ 15 min
same,amount of sumatriptan succinate absorbed by rod,[2],approximately 1 mg sumatriptan succinate/rod
CN1CCCC1c1cccnc1 (stereo not drawn) [nicotine],nicotine release on heat treatment in e-cigarette device,[3],a heat treatment in the device will result in a nicotine release
same,"nicotine release on induction heating, unheated plate",[4],Most of the nicotine was released within the first minute
same,amount of nicotine contained in coin,[5]; calcium sulphate coins mixed with 5 mg/ml nicotine solution,approximately 180 μg
same,amount of nicotine contained in coin,[5]; calcium sulphate coins mixed with 20 mg/ml nicotine solution,~390 µg
same,time within which almost all of the nicotine was released when heated,"[6]; aluminium oxide rods soaked in 6 mg/ml nicotine solution (diluted e-juice) 24 hours, oven approximately 200° C.",5 to 10 min
same,amount of nicotine absorbed by rod,[6]; aluminium oxide rods soaked in 6 mg/ml nicotine solution for 24 hours,approximately 135 μg nicotine/rod
same,amount of nicotine detected in the reference sample,[6]; calcium sulphate coins,lower than 20 mg
same,nicotine detected in coins after heating,"[6]; calcium sulphate coins, oven approximately 200° C.",lower release of nicotine was detected after heating
same,amount of nicotine absorbed by rod,[6]; calcium sulphate rods soaked in pure nicotine for 24 hours,approximately 20 mg nicotine/rod
same,nicotine release during heating,[6]; [9],Most of the nicotine was released
same,"nicotine release, 5 min of heating compared to 1 min of heating",[6]; [9],a higher amount was released during 5 min of heating compared to 1 min of heating
same,amount of nicotine detected in the reference sample,[6]; geopolymer coins,about 16 mg
same,nicotine detected in coins after heating,"[6]; geopolymer coins, oven approximately 200° C.",lower release of nicotine was detected after heating
Clc1cccc(Cl)c1N=C1NCCN1 [clonidine hydrochloride],amount of clonidine hydrochloride present in the coins during heating,[7],decreased significantly
same,amount of clonidine hydrochloride contained in coin,"[8]; calcium sulphate coins pre-loaded, 0.07 g clonidine hydrochloride/g calcium sulphate, coin approximately 0.3 g",approximately 17 mg
same,time within which almost all of the clonidine hydrochloride was released when heated,"[8]; pre-loaded calcium sulphate coins, oven approximately 250° C.",≤ 15 min

# From US12636446B2, “Devices for evaporation and inhalation of nicotine” (Emplicure AB, priority 2016, dated 2026)
